The values that follow come from PubChem BioAssay (NCI).

Test systems include M14 melanoma; NCI-H522 lung; HT29 colon; OVCAR-8 ovarian; OVCAR-5 ovarian; K-562 leukemia; MOLT-4 leukemia; ACHN renal; A549 NSCLC; LOX IMVI melanoma; RPMI-8226 leukemia; NCI-H23 lung; HOP-92 NSCLC; MCF7 breast; T-47D breast; DU-145 prostate; MDA-MB-231 breast; PC-3 prostate.
Holding throughout (assay): inhibition of tumour cell growth, NCI panel, 48 h

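Where inhibition never reached the appropriate level, the endpoint shown equals the highest concentration tested. Otherwise, values were interpolated linearly from a five-concentration, 48-hour dose response in 96-well plates. The concentration for 50% growth inhibition is given as GI50. Definition used: TGI = concentration required for complete inhibition of growth.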

With `CC(=O)Nc1ccc(-c2nnc(SCC(=O)Nc3cccc(Cl)c3)o2)cc1`, the TGI was 29.5 µM in the test on M14 melanoma; 23.5 µM with NCI-H522 lung; 31 µM in the test with HT29 colon; above 100 µM with OVCAR-8 ovarian; 40.3 µM in the test with OVCAR-5 ovarian; above 100 µM with K-562 leukemia. The TGI with MOLT-4 leukemia is 51.8 µM; in the test with ACHN renal, 28.9 µM; in the test with A549 NSCLC it was 33.1 µM; in the test with LOX IMVI melanoma it was 26.8 µM; in the test on RPMI-8226 leukemia, above 100 µM; in the test on NCI-H23 lung it was 23 µM.
With `O=C1Cc2nc(CO)c(CO)c(CO)c2CO1`, the TGI with M14 melanoma, in the test on NCI-H522 lung, in the test on HT29 colon, in the test on OVCAR-8 ovarian, in the test with OVCAR-5 ovarian and in the test with K-562 leukemia was above 100 µM throughout. Further, the TGI in the test with ACHN renal, in the test on A549 NSCLC, in the test on LOX IMVI melanoma, in the test with RPMI-8226 leukemia, in the test on NCI-H23 lung and in the test on HOP-92 NSCLC was above 100 µM throughout.
For the compound `Cc1ccc(OCC2OC(n3cnc4nc(Nc5ccc(Cl)c(Cl)c5)nc(Cl)c43)CC2Oc2ccc(C)cc2)cc1` (stereo not drawn), the TGI in the test with MCF7 breast, in the test on M14 melanoma, in the test on T-47D breast, in the test with HT29 colon, in the test with DU-145 prostate and in the test with OVCAR-8 ovarian was above 100 µM in each case. In addition, the TGI in the test on MDA-MB-231 breast, in the test with OVCAR-5 ovarian, with PC-3 prostate, with K-562 leukemia, with MOLT-4 leukemia and in the test with ACHN renal was above 100 µM in each case. For the same compound, the TGI in the test with A549 NSCLC, in the test with RPMI-8226 leukemia and in the test on NCI-H23 lung was above 100 µM throughout.
Regarding `CC(C)CCNC(=O)C(CC(C)C)NC(=O)[C@H]1O[C@@H]1C(=O)O` (stereo partly drawn), the TGI in the test on MCF7 breast, with M14 melanoma, in the test on T-47D breast, in the test on NCI-H522 lung, in the test with HT29 colon and in the test on DU-145 prostate was above 100 µM throughout. For the same compound, the TGI in the test with OVCAR-8 ovarian, in the test on MDA-MB-231 breast, with OVCAR-5 ovarian, in the test on PC-3 prostate, in the test on K-562 leukemia and in the test with MOLT-4 leukemia was above 100 µM each time. In addition, the TGI with A549 NSCLC, in the test with NCI-H23 lung and in the test with HOP-92 NSCLC was above 100 µM each time.
As for `O=C(Cc1ccccc1)NN1C(=O)/C(=C\c2cccc([N+](=O)[O-])c2)SC1=Nc1ccccc1`, the TGI in the test with MCF7 breast, in the test with M14 melanoma, in the test on T-47D breast, in the test on HT29 colon, in the test with DU-145 prostate and in the test on OVCAR-8 ovarian was above 100 µM each time. Further, the TGI with MDA-MB-231 breast, in the test with OVCAR-5 ovarian, in the test on K-562 leukemia, in the test with MOLT-4 leukemia, in the test with ACHN renal and with A549 NSCLC was above 100 µM in each case. In addition, the TGI in the test on RPMI-8226 leukemia, in the test with NCI-H23 lung and in the test on HOP-92 NSCLC was above 100 µM throughout.
Consider `O=c1oc2ccccc2c(O)c1C(c1cnc2ccccc2c1)c1c(O)c2ccccc2oc1=O`, for which the TGI with T-47D breast, with NCI-H522 lung, in the test with HT29 colon, in the test on DU-145 prostate, in the test on OVCAR-8 ovarian and with MDA-MB-231 breast was above 100 µM throughout. For the same compound, the TGI in the test on PC-3 prostate was above 100 µM; with K-562 leukemia it was above 100 µM; with MOLT-4 leukemia, 97.7 µM; with LOX IMVI melanoma, above 100 µM; in the test with RPMI-8226 leukemia, above 100 µM; in the test on NCI-H23 lung, above 100 µM. The TGI in the test with HOP-92 NSCLC stood at 58.6 µM.
`C[Si](C)(C)c1ccc(-c2c3ccc(-c4cc(Br)cc(Br)c4)nc3nc3nc(-c4cc(Br)cc(Br)c4)ccc23)cc1`: the TGI in the test on MCF7 breast, with M14 melanoma, in the test on T-47D breast, in the test with NCI-H522 lung, in the test with DU-145 prostate and with MDA-MB-231 breast was above 100 µM in each case. Moreover, the TGI in the test with OVCAR-5 ovarian, in the test with PC-3 prostate, with ACHN renal, in the test on A549 NSCLC, with RPMI-8226 leukemia and in the test on NCI-H23 lung was above 100 µM throughout. Moreover, in the test with HOP-92 NSCLC, the TGI was above 100 µM.
Turning to `CC(C)(Oc1ccc(Cl)cc1)C(=O)N(C(=O)N1CCCCC1)c1ccccc1`, the TGI in the test with MCF7 breast came out at 47.3 µM; with M14 melanoma, 52.1 µM; with T-47D breast, 9.68 µM; with HT29 colon, 66.1 µM; in the test with DU-145 prostate, 27.8 µM; in the test with OVCAR-8 ovarian, 31.4 µM. Also, the TGI with MDA-MB-231 breast is 25.5 µM; with OVCAR-5 ovarian, 36.7 µM; in the test with PC-3 prostate, 20 µM; in the test with K-562 leukemia it was above 100 µM; with MOLT-4 leukemia, 84.8 µM; with ACHN renal, 28.1 µM. In addition, the TGI in the test on LOX IMVI melanoma is 26.6 µM; with RPMI-8226 leukemia, above 100 µM; with NCI-H23 lung, 33.1 µM.
In the case of `COC1(C)C(=O)N2C1N(C(=O)OC(C)(C)C)CC2(C)C` (stereo not drawn), the TGI in the test with M14 melanoma, in the test with NCI-H522 lung, in the test with HT29 colon, in the test with OVCAR-8 ovarian, in the test with OVCAR-5 ovarian and with K-562 leukemia was above 100 µM throughout. The TGI in the test on MOLT-4 leukemia was above 100 µM; with ACHN renal, above 100 µM; in the test on A549 NSCLC, above 100 µM; in the test with LOX IMVI melanoma it was 53.1 µM; in the test with RPMI-8226 leukemia it was above 100 µM; in the test with NCI-H23 lung, above 100 µM. For the same compound, in the test on HOP-92 NSCLC, the TGI was above 100 µM.
`CC[C@]12C=CCN3CCC4(c5cc([C@@]6(C(=O)OC)CC7CN(CCc8c6[nH]c6ccccc86)C[C@@H]6CCCC[C@H]76)c(OC)cc5N(C)C4[C@](O)(C(=O)OC)C1OC(C)=O)[C@@H]32` (stereo partly drawn): the TGI is 3.14 µM in the test with M14 melanoma; 38.5 µM with T-47D breast; below 0.01 µM with NCI-H522 lung; below 0.01 µM in the test with HT29 colon; 14.8 µM in the test on DU-145 prostate; below 0.01 µM in the test with MDA-MB-231 breast. For the same compound, the TGI with OVCAR-5 ovarian was 8.83 µM; in the test with PC-3 prostate, below 0.01 µM; in the test on MOLT-4 leukemia, above 100 µM; in the test with ACHN renal, 5.53 µM; in the test on A549 NSCLC, 14.6 µM; in the test with LOX IMVI melanoma, 12.4 µM. Moreover, the TGI in the test on RPMI-8226 leukemia is 32.1 µM; in the test on NCI-H23 lung, below 0.01 µM; in the test with HOP-92 NSCLC it was 16.9 µM. Besides, in the test with HOP-92 NSCLC, the GI50 is 0.0672 µM.
`c1cc2nnsc2s1`: the TGI in the test with M14 melanoma, with NCI-H522 lung, with HT29 colon, in the test with OVCAR-8 ovarian, in the test with OVCAR-5 ovarian and in the test on K-562 leukemia was above 100 µM in each case. Moreover, the TGI in the test with MOLT-4 leukemia, with ACHN renal, in the test with LOX IMVI melanoma, with RPMI-8226 leukemia, in the test with NCI-H23 lung and with HOP-92 NSCLC was above 100 µM throughout.
For `O=[N+]([O-])c1ccc(N/N=C2/CC3=C2CCCCCCCCCC3)c([N+](=O)[O-])c1`, the TGI with MCF7 breast, in the test on M14 melanoma, in the test with T-47D breast, in the test on NCI-H522 lung, in the test with HT29 colon and in the test on DU-145 prostate was above 100 µM each time. Besides, the TGI in the test with OVCAR-8 ovarian, in the test on MDA-MB-231 breast, with OVCAR-5 ovarian, with PC-3 prostate, in the test with K-562 leukemia and with MOLT-4 leukemia was above 100 µM in each case. The TGI with ACHN renal, in the test on A549 NSCLC, in the test on RPMI-8226 leukemia and with NCI-H23 lung was above 100 µM in each case.
For `CC(=O)Nc1ccc(C(=O)NN2C(=O)CSC2c2ccc(O)cc2)cc1` (stereo not drawn), the TGI in the test with MCF7 breast, with M14 melanoma, in the test on T-47D breast, with HT29 colon, with DU-145 prostate and in the test with OVCAR-8 ovarian was above 100 µM each time. Moreover, the TGI in the test with MDA-MB-231 breast, in the test on OVCAR-5 ovarian, in the test on K-562 leukemia, with MOLT-4 leukemia, with ACHN renal and in the test on A549 NSCLC was above 100 µM throughout. In addition, the TGI in the test with RPMI-8226 leukemia, with NCI-H23 lung and in the test on HOP-92 NSCLC was above 100 µM each time.
As for `Cc1ccc(Cc2nn(C)c(=O)n2N)cc1`, the TGI in the test on MCF7 breast, in the test with M14 melanoma, in the test with T-47D breast, in the test with HT29 colon, in the test on DU-145 prostate and in the test with OVCAR-8 ovarian was above 100 µM throughout. The TGI in the test with MDA-MB-231 breast, with OVCAR-5 ovarian, in the test with PC-3 prostate, with K-562 leukemia, in the test with ACHN renal and in the test on A549 NSCLC was above 100 µM each time. In addition, the TGI with LOX IMVI melanoma, in the test with RPMI-8226 leukemia, in the test on NCI-H23 lung and in the test with HOP-92 NSCLC was above 100 µM throughout.
